The test concerns the target mutant sarcosine oxidase from E. coli JM109 (pSO12 EH), FERM BP-6597; mutant of Bacillus sp. NS-129 sarcosine oxidase (wild type SEQ ID NO: 1) (Bacillus sp. NS-129, UniProt P23342). The test is described as follows: Km determination by sarcosine oxidase enzyme assay (formaldehyde/acetyl-acetone colour), Lineweaver-Burk plot. The test is classed as biochemical. Conditions: read-out: Km value (for sarcosine), phosphate buffer pH7.7, 37° C., 10 minutes. On the procedure: 0.25M phosphate buffer (0.1 ml, pH7.7), 0.2 M sarcosine solution (0.3 ml) and the enzyme solution with an appropriate concentration (0.1 ml) were mixed and reacted at 37° C. for 10 minutes. Then, 1.0 N acetic acid solution (0.5 ml) was added to the mixture to stop the reaction. To the mixture was added 3 ml of acetyl-acetone color-developing solution (acetyl-acetone, 0.2%(v/v) and diammonium hydrogenphosphate, 10%(w/v) ) (pH6.5) to develop the color at 37° C. for 40 minutes. The absorbance was determined at 410 nm by spectrophotometer. Then, the yield of the enzyme was estimated from the calibration curve of formaldehyde prepared beforehand. The amount of the enzyme which produces 1 μmole of formaldehyde per minute at 37° C. was defined as 1 unit.
The Km value of the enzyme was determined using the assay as described above.

In general, Km refers to the substrate concentration at which the rate is half of its maximum.

As to `CNCC(=O)O` [sarcosine], the Km was roughly 3.5 mM.

(Values after US6228626A, “Sarcosine oxidase and process for producing the same” (priority 1998, dated 2001).)
